Experimental data published in BigSolDB 2.1.

Cc1cnc(NC(=O)C2=C(O)c3ccccc3S(=O)(=O)N2C)s1
solubility (mole fraction) (in ethanol, 293.15 K): 4.47e-05
solubility (mole fraction) (in ethanol, 298.15 K): 5.67e-05
solubility (mole fraction) (in ethanol, 303.15 K): 7.52e-05
solubility (mole fraction) (in ethanol, 308.15 K): 9.37e-05
solubility (mole fraction) (in ethanol, 313.15 K): 0.000123
solubility (mole fraction) (in ethyl acetate, 293.15 K): 0.000389
solubility (mole fraction) (in ethyl acetate, 298.15 K): 0.000453
solubility (mole fraction) (in ethyl acetate, 303.15 K): 0.00053
solubility (mole fraction) (in ethyl acetate, 308.15 K): 0.000607
solubility (mole fraction) (in ethyl acetate, 313.15 K): 0.000707
